The test system of experiment [1] is C8166. Nature of the experiment: Anti HIV-1 activity was evaluated through C8166/GUN1WT syncytium formation assay at a concentration of 1000 ug/mL. Format: functional, Homo sapiens.
In experiment [2] the test system is C8166. Nature of the experiment: Anti HIV-1 activity was evaluated through C8166/GUN1WT syncytium formation assay at a concentration of 50 ug/mL. Format: functional, Homo sapiens.
The subject of experiment [3] is C8166. Nature of the experiment: Anti HIV-1 activity was evaluated through C8166/GUN1WT syncytium formation assay at a concentration of 200 ug/mL. Format: functional, Homo sapiens.
Experiment [4] can be described thus: Anti HIV-1 activity measured in terms of cytotoxicity against NP-2/CD4/GPR1 cells infected with HIV-1 (GUN1V). Format: functional, cell-based, Homo sapiens.
Experiment [5] in a line: Anti HIV-1 activity measured in terms of cytotoxicity against NP-2/CD4/CXCR4 cells infected with HIV-1 (IIIBstrain). Format: functional, cell-based, Homo sapiens.
Experiment [6] can be described thus: Anti HIV-1 activity measured in terms of cytotoxicity against NP-2/CD4/CXCR4 cells infected with HIV-1(GUN1WT). Format: functional, cell-based, Homo sapiens.
A short description of experiment [7]: Anti HIV-1 activity measured in terms of cytotoxicity against NP-2/CD4/CCR5 cells infected with HIV-1(GUN1WT). The format is functional, cell-based, Homo sapiens.
Experiment [8] relates to C8166. Nature of the experiment: Anti HIV-1 activity was evaluated through C8166/GUN1WT syncytium formation assay at a concentration of 0 ug/mL. The format is functional, Homo sapiens.

Where a SMILES comes first, the peptide text is derived from it. [ ]: non-standard residue; d: D form. The star is where a group is joined. sY = N[C@@H](Cc1ccc(OS(=O)(=O)O)cc1)C(=O)O; X1 = O=S(=O)(O)O* Some results are limits rather than exact numbers.

One may read the IC50 as the point on the concentration scale where inhibition reaches its midpoint. Lower therefore signals inhibition by little substance.

For `CC(C)C[C@H](NC(=O)[C@H](CC(=O)OS(=O)(=O)[O-])NC(=O)[C@H](Cc1ccc(OS(=O)(=O)[O-])cc1)NC(=O)[C@H](COS(=O)(=O)[O-])NC(=O)[C@@H](N)Cc1ccc(OS(=O)(=O)[O-])cc1)C(=O)N[C@@H](CC(=O)OS(=O)(=O)[O-])C(=O)N[C@@H](Cc1ccc(OS(=O)(=O)[O-])cc1)C(=O)N[C@@H](Cc1ccc(OS(=O)(=O)[O-])cc1)C(=O)O.[Na+].[Na+].[Na+].[Na+].[Na+].[Na+].[Na+]`, the Activity in the experiment on C8166 [1] amounted to 191; with C8166 [2], 235; with C8166 [3] it was 210. The IC50 in experiment [4] stood at 660 µM.
`CC(C)C[C@H](NC(=O)[C@H](CC(=O)OS(=O)(=O)O)NC(=O)[C@H](Cc1ccc(OS(=O)(=O)O)cc1)NC(=O)[C@H](COS(=O)(=O)O)NC(=O)[C@@H](N)Cc1ccc(OS(=O)(=O)O)cc1)C(=O)N[C@@H](CC(=O)OS(=O)(=O)O)C(=O)N[C@@H](Cc1ccc(OS(=O)(=O)O)cc1)C(=O)N[C@@H](Cc1ccc(OS(=O)(=O)O)cc1)C(=O)O`: the Activity was determined as 124 with C8166 [1], 231 in the experiment with C8166 [2] and 165 in the experiment with C8166 [3]. Besides, the half-inhibitory concentration (IC50) in experiment [5], in experiment [4], in experiment [6] and in experiment [7] (np-2/cd4/ccr5) was > 1000 µM each time.
For `COC(=O)C(=O)N1CCC[C@H]1C(=O)N[C@H](Cc1ccccc1)C(=O)Nc1ccccc1OCC(=O)N[C@@H](Cc1ccc(O)cc1)C(=O)N[C@@H](CC(=O)O)C(=O)N[C@@H](CC(C)C)C(=O)N[C@@H](CC(=O)O)C(=O)N[C@@H](Cc1ccc(O)cc1)C(=O)N[C@@H](Cc1ccc(O)cc1)C(=O)O`, the Activity with C8166 [1] stood at 55; with C8166 [2], 155; with C8166 [8], 192; with C8166 [3], 100. Further, the IC50 in experiment [5] (Homo sapiens) is 150 µM; in experiment [4] (Homo sapiens) it was 100 µM; in experiment [6] (Homo sapiens) it was 100 µM; in experiment [7] (Homo sapiens, CCR5), 120 µM.
`CC(C)C[C@H](NC(=O)[C@H](CC(=O)OS(=O)(=O)O)NC(=O)[C@H](Cc1ccc(OS(=O)(=O)O)cc1)NC(=O)[C@H](COS(=O)(=O)O)NC(=O)[C@@H](N)Cc1ccc(OS(=O)(=O)O)cc1)C(=O)N[C@@H](CC(=O)OS(=O)(=O)O)C(=O)N[C@@H](Cc1ccc(OS(=O)(=O)O)cc1)C(=O)N[C@@H](Cc1ccc(OS(=O)(=O)O)cc1)C(=O)O.CCN(CC)CC.CCN(CC)CC.CCN(CC)CC.CCN(CC)CC.CCN(CC)CC.CCN(CC)CC.CCN(CC)CC`: the results for the Activity in the experiment with C8166 [1], with C8166 [2] and in the experiment on C8166 [3] were 4, 258 and 52, respectively. Further, the IC50 in experiment [5] turned out to be 18 µM; in experiment [4], 4.5 µM; in experiment [6], 10 µM; in experiment [7] (np-2/cd4/ccr5), 42 µM.
With `CC(C)C[C@H](NC(=O)[C@H](CC(=O)OS(=O)(=O)O)NC(=O)[C@@H](N)Cc1ccc(OS(=O)(=O)O)cc1)C(=O)N[C@@H](CC(=O)OS(=O)(=O)O)C(=O)N[C@@H](Cc1ccc(OS(=O)(=O)O)cc1)C(=O)N[C@@H](Cc1ccc(OS(=O)(=O)O)cc1)C(=O)O.CCN(CC)CC.CCN(CC)CC.CCN(CC)CC.CCN(CC)CC.CCN(CC)CC` (H-[sY]D(X1)LD(X1)[sY][sY]-OH), the Activity worked out at 0 in the experiment on C8166 [1], 193 in the experiment with C8166 [2], 215 in the experiment on C8166 [8] and 52 in the experiment with C8166 [3]. The IC50 in experiment [5] (Homo sapiens) was 15 µM; in experiment [4] (Homo sapiens), 25 µM; in experiment [6] (Homo sapiens), 65 µM; in experiment [7] (Homo sapiens, CCR5), 55 µM.
For the compound `CCN(CC)CC.CCN(CC)CC.CCN(CC)CC.CCN(CC)CC.CCN(CC)CC.CCN(CC)CC.CCN(CC)CC.CCN(CC)CC.COC(=O)C(=O)N1CCC[C@H]1C(=O)N[C@H](Cc1ccccc1)C(=O)Nc1ccccc1OCC(=O)N[C@@H](Cc1ccc(OS(=O)(=O)O)cc1)C(=O)N[C@@H](COS(=O)(=O)O)C(=O)N[C@@H](Cc1ccc(OS(=O)(=O)O)cc1)C(=O)N[C@@H](CC(=O)OS(=O)(=O)O)C(=O)N[C@@H](CC(C)C)C(=O)N[C@@H](CC(=O)OS(=O)(=O)O)C(=O)N[C@@H](Cc1ccc(OS(=O)(=O)O)cc1)C(=O)N[C@@H](Cc1ccc(OS(=O)(=O)O)cc1)C(=O)O`, the Activity in the experiment on C8166 [1] stood at 1; with C8166 [2], 219; in the experiment on C8166 [3] it was 66. For the same compound, the concentration for half-maximal inhibition (IC50) was 10 µM in experiment [5] (Homo sapiens); 4.1 µM in experiment [4] (Homo sapiens); 10 µM in experiment [6] (Homo sapiens); 42 µM in experiment [7] (Homo sapiens, CCR5).
As for `COC(=O)C(=O)N1CCC[C@H]1C(=O)N[C@H](Cc1ccccc1)C(=O)Nc1ccccc1OCC(=O)N[C@@H](Cc1ccc(O)cc1)C(=O)N[C@@H](CO)C(=O)N[C@@H](Cc1ccc(O)cc1)C(=O)N[C@@H](CC(=O)O)C(=O)N[C@@H](CC(C)C)C(=O)N[C@@H](CC(=O)O)C(=O)N[C@@H](Cc1ccc(O)cc1)C(=O)N[C@@H](Cc1ccc(O)cc1)C(=O)O`, the Activity with C8166 [1] is on record as 121; with C8166 [2], 215; in the experiment with C8166 [3] it was 222. For the same compound, the IC50 is > 1000 µM in experiment [5] (Homo sapiens); 660 µM in experiment [4] (Homo sapiens); > 1000 µM in experiment [6] (Homo sapiens); > 1000 µM in experiment [7] (Homo sapiens, CCR5).
As to `CC(C)C[C@H](NC(=O)[C@H](CC(=O)O)NC(=O)[C@H](Cc1ccc(O)cc1)NC(=O)[C@H](CO)NC(=O)[C@@H](N)Cc1ccc(O)cc1)C(=O)N[C@@H](CC(=O)O)C(=O)N[C@@H](Cc1ccc(O)cc1)C(=O)N[C@@H](Cc1ccc(O)cc1)C(=O)O` (H-YSYDLDYY-OH), the Activity turned out to be 133 in the experiment with C8166 [1], 228 in the experiment with C8166 [2] and 252 with C8166 [3]. Also, the 50% inhibitory concentration (IC50) is > 1000 µM in experiment [5] (Homo sapiens); 660 µM in experiment [4] (Homo sapiens); > 1000 µM in experiment [6] (Homo sapiens); > 1000 µM in experiment [7] (Homo sapiens, CCR5).
As for `CC(C)C[C@H](NC(=O)[C@H](CC(=O)O)NC(=O)[C@@H](N)Cc1ccc(O)cc1)C(=O)N[C@@H](CC(=O)O)C(=O)N[C@@H](Cc1ccc(O)cc1)C(=O)N[C@@H](Cc1ccc(O)cc1)C(=O)O` (H-YDLDYY-OH), the Activity is 4 with C8166 [1], 188 in the experiment with C8166 [2] and 62 with C8166 [3]. Further, the IC50 amounted to 350 µM in experiment [5] (Homo sapiens); 42 µM in experiment [4] (Homo sapiens); 180 µM in experiment [6] (Homo sapiens); 66 µM in experiment [7] (Homo sapiens, CCR5).
On to `CCN(CC)CC.CCN(CC)CC.CCN(CC)CC.CCN(CC)CC.CCN(CC)CC.COC(=O)C(=O)N1CCC[C@H]1C(=O)N[C@H](Cc1ccccc1)C(=O)Nc1ccccc1OCC(=O)N[C@@H](Cc1ccc(OS(=O)(=O)O)cc1)C(=O)N[C@@H](CC(=O)OS(=O)(=O)O)C(=O)N[C@@H](CC(C)C)C(=O)N[C@@H](CC(=O)OS(=O)(=O)O)C(=O)N[C@@H](Cc1ccc(OS(=O)(=O)O)cc1)C(=O)N[C@@H](Cc1ccc(OS(=O)(=O)O)cc1)C(=O)O`, for which the Activity in the experiment with C8166 [1] is reported as 12; with C8166 [2] it was 182; in the experiment with C8166 [3], 88. For the same compound, the IC50 was 55 µM in experiment [5] (Homo sapiens); 35 µM in experiment [4] (Homo sapiens); 80 µM in experiment [6] (Homo sapiens); 60 µM in experiment [7] (Homo sapiens, CCR5).

(Values after ChEMBL document CHEMBL1134813, “Inhibition of HIV-1 infection by synthetic peptide analogues derived from the NH(2)-Terminal extracellular region of GPR1” (Bioorg Med Chem Lett, 2001).)
